Legend:
LNCaP tumors [1] = experiment: in vivo cancer assay, LNCaP model, subcutaneous drug delivery; design: species or system Ncr nude male mice
Experimental: Ncr nude male mice, age 5 to 6 weeks, were injected in the right flank with 5×10^6 LNCaP cells in Matrigel™ (0.1 ml total injection volume). […] Controls received 50 mM HEPES s.c. daily. Once tumors were palpable they were measured twice a week.
(§1) Response to treatment was monitored in two ways. First, mean tumor volume for each group was presented as tumor:control ratio (% T/C) and these values were compared at one point in time. Second, tumor volume versus time was monitored.

LNCaP cells = conditions: as the concentration increased; cited from earlier work
[2] = tested on: hyperalgesia following sciatic nerve constriction; experiment: chronic constrictive injury (CCI) model of pain; assay type: in vivo, rats
Excerpt: (§2) One source of neuronal glutamate is thought to derive from the abundant neuropeptide NAAG which is hydrolyzed by NAALADase to liberate free glutamate. The inventors hypothesized that inhibition of NAALADase could limit pain by preventing this source of glutamate. To test this hypothesis, the inventors examined the possible antinocipetive effects of several NAALADase inhibitors in the formalin-, acetic acid- and chronic constrictive injury (CCI; “Bennett model”) models of pain. […] On day 7, 5% formalin was injected into the dorsum of the rat's hindpaw.
Sciatic nerve ligation, consisting of 4 ligatures being tied loosely around the sciatic nerve at 1 mm intervals proximal to the nerve trifurcation, was performed on rats. […] Animals were habituated to the Hargreaves apparatus and the infrared heat source directed onto the […] surface of the hindpaw and the time taken for the animal to withdraw its paw noted. The difference score (between the latency of the response for the paw on the operated side versus the control side) was determined. […] Normal (unoperated) rats had approximately equal latencies for both paws. This effect was significant starting at 11 days of drug treatment and persisted through to the end of the study (for 21 days of daily dosing).

[3] = tested on: stroke-induced extracellular glutamate increases; conditions: rats; cited from earlier work
alcohol-preferring rats = conditions: rat, in vivo; cited from earlier work
[4] = tested on: angiogenesis in Matrigel plugs; experiment: in vivo assay of daily dosages on angiogenesis (Matrigel plug, bFGF); design: species or system C57B1 female mice; conditions: 3 mg/kg and 30 mg/kg daily s.c., seven days
Experimental: The injected Matrigel™ rapidly formed a gel. On the same a day as the Matrigel™ injection, daily subcutaneous injections of Compound 3 around the Matrigel™ plug were initiated. Seven days post Matrigel™ injection, Matrigel™ plugs were excised and histology was performed.
The concentrations of the daily dosages as well as the coinciding initial Matrigel™ plug compositions are provided below in TABLE VI.

[5] = tested on: formalin-induced flinching behavior; experiment: formalin model of pain; assay type: in vivo, rats; conditions: 50 mg/kg i.p. daily for 7 days
Excerpt: as §2

[6] = tested on: Dorsal root ganglia-Schwann cell co-cultures; experiment: in vitro myelination in dorsal root ganglia-Schwann cell co-cultures; assay type: cell-based
Excerpt: The inventors hypothesized that NAALADase may play a role in signaling myelin formation and inhibition of NAALADase may facilitate myelination. To test this hypothesis, the inventors examined the effects of several NAALADase inhibitors in a well established in vitro model system of myelination. Dorsal root ganglia-Schwann cell co-cultures were established as previously described (Einheber et al., J. Cell. Biol., Vol. 123, p. 1223). Following 7 days in co-culture, myelination was initiated following the addition of serum and ascorbic acid with various doses of NAALADase inhibitors (1 nM to 10 μM) or progesterone (20 nM; positive control). The extent of myelination was examined between days 14-21 using immunocytochemical staining for myelin basic protein (MBP), a known myelin marker.

MPTP lesioned mice = conditions: cited from earlier work
[7] = tested on: angiogenesis in the Matrigel/bFGF gels; experiment: in vivo assay of a continuous dosage on angiogenesis (minipump, Matrigel/bFGF); design: species or system C57B1 female mice
Experimental: Minipumps filled with vehicle (50 mM Hepes) were also implanted at this time. Twenty-four hours later, mice were each injected subcutaneously with 0.5 mL Matrigel™ and the 150 ng/mL of the angiogenic factor, basic FGF (bFGF). Thirteen days post Matrigel™/bFGF injection, the gels were recovered, fixed in formalin and sections were stained with Trichrome-Masson stain.

[8] = tested on: cocaine-induced sensitization; experiment: in vivo behavioral sensitization to cocaine; design: species or system Male Sprague-Dawley rats
Experimental: NAALADase hydrolyzes the abundant neuropeptide NAAG to liberate glutamate (GLU). The inventors hypothesized that inhibition of NAALADase could attenuate sensitization by preventing this source of GLU. […] Male Sprague-Dawley rats received home cage injections of cocaine (20 mg/kg/day×5 days; i.p.) or sale (1.0 ml/kg). […] Cocaine (20 mg/kg)-induced locomotor activity was assessed 3 days later. […]

[9] = tested on: acetic acid (0.6%) induced writhing; experiment: acetic acid model of pain (writhing); assay type: in vivo, mice; conditions: pretreated
Excerpt: as §2

[10] = tested on: dynorphin-induced spinal cord injury; conditions: co-administered with dynorphin A; by 24-hour post-injection; cited from earlier work
LNCaP tumors [11] = experiment: in vivo cancer assay, LNCaP model, intratumoral drug delivery; design: species or system Ncr nude male mice
Experimental: Ncr nude male mice, age 5 to 6 weeks, were injected in the right flank with 10^7 LNCaP cells in Matrigel™ (0.1 ml total injection volume). When the tumors reached a predetermined size (50 to 60 mm^3) mice.were randomly placed into treatment groups of 6 to 8 mice each. […] Controls received 50 μl of 50 mM HEPES intratumorally daily. Tumors were measured twice a week.
as §1

Dunning G tumors = experiment: in vivo cancer assay, Dunning G model, subcutaneous drug delivery; design: species or system Male Copenhagen syngenic rats
Experimental: Male Copenhagen syngenic rats, age 8 to 10 weeks, were injected in both flanks with 10^7 Dunning G cells. […] Controls received 50 mM HEPES s.c. daily. Tumors were measured twice a week.
as §1

[12] = tested on: nicotine self-administration in rats; conditions: rat, in vivo; cited from earlier work
[13] = tested on: cryolesion of the sciatic nerve; conditions: sciatic nerves in mice; cited from earlier work
[14] = tested on: spinal cord organotypic cultures; conditions: cited from earlier work
[15] = 50 mg/kg i.p. daily starting 10 days after surgery, day 18

O=C(O)CCC(CP(=O)(O)O)C(=O)O (centres unmarked) [Compound 3, 2-(phosphonomethyl)-pentanedioic acid]
tumor growth, % of controls (LNCaP tumors [1]; 10 mg/kg s.c. daily, day 86): 24% | effect on tumor growth (LNCaP tumors [1]; 1, 3 and 30 mg/kg s.c. daily): no effect on tumor growth | LNCaP cell proliferation (LNCaP cells): decreased significantly | difference scores (thermal pain response) [2, 15]: −0.2±1.9 | pain attenuation vs. operated vehicle group [2, 15]: 98% | difference scores between the two paws vs. vehicle-treated controls ([2]; 50 mg/kg i.p. daily starting 10 days post surgery, significant starting at 11 days, through 21 days of dosing): dramatically normalized | concurrent glutamate changes in the parietal cortex [3]: completely prevented | stroke-induced extracellular glutamate increases in the striatum [3]: significantly attenuated | body weights or 24 hour water intakes (alcohol-preferring rats): without affecting | ethanol consumption (alcohol-preferring rats): significantly reduced | blood vessels or angiogenesis in the Matrigel plugs [4]: decrease in blood vessels or angiogenesis | effect compared with acute pretreatment with morphine (5 mg/kg) [5]: more robust | flinching behavior, early phase ([5]; 5% formalin on day 7): 2.5±3 | flinching behavior, late phase ([5]; 5% formalin on day 7): 0.5±0.58 | immunostaining of MBP ([6]; 1 nM, two week treatment): significant increase | extent of myelination vs. maximal doses of ascorbic acid and progesterone ([6]; high dose, 1 μM): greater extent of myelination | TH-stained dopaminergic neurons (MPTP lesioned mice): significant recovery | angiogenic response ([7]; 1 μg/day by minipump): strong angiogenic response | angiogenesis in the Matrigel/bFGF gels ([7]; 10 μg/day and 100 μg/day by minipump): significantly decreased angiogenesis | enhancement of cocaine (20 mg/kg)-induced locomotor activity (sensitization) ([8]; 10 and 50 mg/kg, 15 minutes prior to cocaine injections x 5 days, assessed 3 days later): significantly reduced | basal locomotor activity or the response to saline ([8]; Compound 3 on its own): did not alter | acetic acid (0.6%) induced writhing vs. vehicle control [9]: significantly attenuated | motor scores [10]: significant improvement | Tumor volume (LNCaP tumors [11]; after 42 days of treatment, intratumoral 0.025 μg/day): 465.7±176 mm^3 | Optimal % T/C (LNCaP tumors [11]; intratumoral 0.025 μg/day): 42% | Regressions (LNCaP tumors [11]; intratumoral 0.025 μg/day): 1/7 | Optimal % T/C (LNCaP tumors [11]; intratumoral 0.25 μg/day): 51% | Regressions (LNCaP tumors [11]; intratumoral 0.25 μg/day): 1/7 | Optimal % T/C (LNCaP tumors [11]; intratumoral 2.5 μg/day): 45% | Regressions (LNCaP tumors [11]; intratumoral 2.5 μg/day): 0/7 | Optimal % T/C (LNCaP tumors [11]; intratumoral 25.0 μg/day): 76% | Regressions (LNCaP tumors [11]; intratumoral 25.0 μg/day): 0/7 | tumor growth (LNCaP tumors [11]; intratumoral 0.025, 0.25 and 2.5 μg/day): slowed tumor growth substantially | tumor size, % of controls (Dunning G tumors; 10 mg/kg s.c. daily): 38% | tumor size, % of controls (Dunning G tumors; 30 mg/kg s.c. daily): 22% | effect on tumor growth (Dunning G tumors; 1 and 3 mg/kg s.c. daily): no effect on tumor growth | cumulative food intakes [12]: reduced | nicotine self-administration [12]: reduced | myelin thickness [13]: increase | myelinated axon number [13]: increase | protection against THA-induced toxicity [14]: dose-dependent protection

Source: patent publication US20030083374A1, “NAALADase inhibitors useful as pharmaceutical compounds and compositions” (priority 1998, published 2003)
